This assay has as its target T1, BRD4 BD2 (Homo sapiens, UniProt O60885, Y97A).
T1 construct: BRD4 (1-477) (Y97A) and (Y390A); made in house; host or cells: E. coli (pET15b vector)
Nature of the assay: BRD4 BD2 TR-FRET competition assay. The format is binding. The procedure: Bromodomain binding was assessed utilising a time resolved fluorescent resonance energy transfer (TR-FRET) competition assay. To enable this approach a known, high affinity, pan-BET interacting small molecule was labelled with Alexa Fluor® 647, which is a far-red-fluorescent dye (Reference Compound X). Reference Compound X acts as a reporter of bromodomain binding and is the acceptor fluorophore component of the TR-FRET pair. Europium chelate, conjugated to an anti-6*His antibody, was utilised as the donor fluorophore in the TR-FRET pair. […] A TR-FRET signal is generated when the donor and acceptor fluorophores are in close proximity, between 20-80 Å, which is enabled in this assay by binding of Reference Compound X to the bromodomain protein.
In order to generate a TR-FRET signal, donor fluorophore is excited by a laser at λ337 nm, which subsequently leads to emission at λ618 nm. If the acceptor fluorophore is in close proximity then energy transfer can occur, which leads to emission of Alexa Fluor® 647 at λ665 nm. In the presence of competitor compound, Reference Compound X can be displaced from binding to the bromodomain. If displacement occurs, the acceptor fluorophore is no longer in proximity to the donor fluorophore, which prevents fluorescent energy transfer and, subsequently, a loss of Alexa Fluor® 647 emission at λ665 nm.
The competition of the compounds of formula (I) with Reference Compound X for binding to the BET family (BRD2, BRD3, BRD4 and BRDT) was assessed using protein truncates spanning both bromodomain 1 (BD1) and bromodomain 2 (BD2). In order to monitor differential binding to either BD1 or BD2, single residue mutations of key tyrosines to alanine were made in the acetyl lysine binding pockets. To validate this approach, a double residue mutant tandem domain protein was produced for each of the BET family members. Utilising a Fluorescence Polarisation approach, binding affinities for each of the single and double mutants for Reference Compound X were determined.
Final purification was completed by Superdex 200 prep grade size exclusion column. Purified protein was stored at −80° C. in 20 mM HEPES pH 7.5 and 100 mM NaCl.
All assay components were dissolved in an assay buffer composing of 50 mM HEPES pH7.4, 50 mM NaCl, 5% Glycerol, 1 mM DTT and 1 mM CHAPS. Reference Compound X was diluted, in assay buffer containing 20 nM single mutant, tandem bromodomain protein, to a concentration equivalent to 2*Kd for this bromodomain. The solution containing bromodomain and Reference Compound X was added to dose response dilutions of test compound or DMSO vehicle (a maximum of 0.5% DMSO is used in this assay) in Greiner 384 well black low volume microtitre plates and subsequently incubated for 30 minutes at room temperature. An equal volume of 3 nM of anti-6*His Europium chelate was added to all wells, followed by a further 30 minute incubation at room temperature. TR-FRET was detected using a Perkin Elmer Multimode plate reader, by exciting the donor fluorophore at λ337 nm and subsequently, after a delay of 50 μsecs, measuring emission of the donor and acceptor fluorophores at λ615 nm and λ665 nm, respectively. In order to control these assays, 16 replicates each of uninhibited (DMSO vehicle) and inhibited (10*IC50 concentrations of Example 11 of WO 2011/054846A1) TR-FRET assays were included on every microtitre plate.
cA four parameter curve fit of the following form was then applied: y=a+((b−a)/(1+(10^x/10^c)^d)
Where ‘a’ is the minimum, ‘b’ is the Hill slope, ‘c’ is the pIC50 and ‘d’ is the maximum.
In general terms: In TR-FRET formats the signal depends on donor and acceptor labels being close together.

The mark [1] stands for this setting: average of N recorded values, read-out: BRD4 BD2 IC50 (average value) (converted).
Where [2] appears, read: single mutant tandem BRD4, read-out: pIC50 in the BRD4 BD2 assay (converted).

The structures appear in SMILES notation. Where two headings read alike, the source gives them in different places. Bounds are passed on as bounds.

On to `CCCNC(=O)c1cc(C(=O)NC)c(=O)n(Cc2ccccc2)c1` [Example 2, 1-Benzyl-N^3-methyl-2-oxo-N^5-propyl-1,2-dihydropyridine-3,5-dicarboxamide], for which the IC50 is 126 nM under setting [1] and 100 to 1000 nM under setting [2].
Turning to `CCCCNC(=O)c1cc(C(=O)NC)c(=O)n(Cc2ccccc2)c1` [Example 3, 1-Benzyl-N^5-butyl-N^3-methyl-2-oxo-1,2-dihydropyridine-3,5-dicarboxamide], the IC50 under setting [2] is 100 to 1000 nM.
As for `CNC(=O)CCCNC(=O)c1cc(C(=O)NC)c(=O)n(Cc2ccccc2)c1` [Example 5, 1-Benzyl-N^3-methyl-N^5-(4-(methylamino)-4-oxobutyl)-2-oxo-1,2-dihydropyridine-3,5-dicarboxamide], under setting [2], the IC50 was 100 to 1000 nM.
The same measure, in the same setting: as for `CNC(=O)c1cc(C(=O)NCCCNC(=O)OC(C)(C)C)cn(Cc2ccccc2)c1=O` [Example 6, tert-Butyl (3-(1-benzyl-5-(methylcarbamoyl)-6-oxo-1,6-dihydropyridine-3-carboxamido)propyl)carbamate], the figure is 100 to 1000 nM; as for `CNC(=O)c1cc(C(=O)NCCC(F)(F)F)cn(Cc2ccccc2)c1=O` [Example 7, 1-Benzyl-N^3-methyl-2-oxo-N^5-(3,3,3-trifluoropropyl)-1,2-dihydropyridine-3,5-dicarboxamide], 100 to 1000 nM; as for `CNC(=O)c1cc(C(=O)NCCc2cnc[nH]2)cn(Cc2ccccc2)c1=O` [Example 8, N^5-(2-(1H-Imidazol-5-yl)ethyl)-1-benzyl-N^3-methyl-2-oxo-1,2-dihydropyridine-3,5-dicarboxamide], 100 to 1000 nM.
On to `CNC(=O)c1cc(C(=O)NCCCC(=O)OC)cn(Cc2ccccc2)c1=O` [Example 9, Methyl 4-(1-benzyl-5-(methylcarbamoyl)-6-oxo-1,6-dihydropyridine-3-carboxamido)butanoate], for which the IC50 under setting [2] is 100 to 1000 nM.
Take `CNC(=O)c1cc(C(=O)NCCc2ccccn2)cn(Cc2ccccc2)c1=O` [Example 10, 1-Benzyl-N^3-methyl-2-oxo-N^5-(2-(pyridin-2-yl)ethyl)-1,2-dihydropyridine-3,5-dicarboxamide]: under setting [2], the IC50 is 100 to 1000 nM.
In the case of `CNC(=O)c1cc(C(=O)NCCCc2ncc[nH]2)cn(Cc2ccccc2)c1=O` [Example 11, N^5-(3-(1H-Imidazol-2-yl)propyl)-1-benzyl-N^3-methyl-2-oxo-1,2-dihydropyridine-3,5-dicarboxamide], the IC50 reads like this: under setting [1], 63.1 nM; under setting [2], at most 100 nM.
`CNC(=O)c1cc(C(=O)NCCc2cn[nH]c2)cn(Cc2ccccc2)c1=O` [Example 12, N^5-(2-(1H-Pyrazol-4-yl)ethyl)-1-benzyl-N^3-methyl-2-oxo-1,2-dihydropyridine-3,5-dicarboxamide]: the IC50 under setting [2] is at most 100 nM.
In the case of `CNC(=O)c1cc(C(=O)NCCc2cn[nH]c2)cn(Cc2cccc(C)c2)c1=O` [Example 13, N^5-(2-(1H-Pyrazol-4-yl)ethyl)-N^3-methyl-1-(3-methylbenzyl)-2-oxo-1,2-dihydropyridine-3,5-dicarboxamide], the IC50 by setting is: under setting [1], 100 nM; under setting [2], at most 100 nM.
For the compound `CCNC(=O)c1cc(C(=O)NC)c(=O)n(Cc2cccc(C)c2)c1` [Example 14, N^5-Ethyl-N^3-methyl-1-(3-methylbenzyl)-2-oxo-1,2-dihydropyridine-3,5-dicarboxamide], the IC50 under setting [2] is 100 to 1000 nM.
Same read-out and setting: as for `CNC(=O)c1cc(C(=O)NCCc2cn[nH]c2)cn([C@H](C)c2ccccc2)c1=O` [Example 15, (R)-N^5-(2-(1H-Pyrazol-4-yl)ethyl)-N^3-methyl-2-oxo-1-(1-phenylethyl)-1,2-dihydropyridine-3,5-dicarboxamide], the figure is at most 100 nM; as for `CCNC(=O)c1cc(C(=O)NC)c(=O)n([C@H](C)c2ccccc2)c1` [Example 16, (R)-N^5-Ethyl-N^3-methyl-2-oxo-1-(1-phenylethyl)-1,2-dihydropyridine-3,5-dicarboxamide], 100 to 1000 nM; as for `CNC(=O)c1cc(C(=O)NCCc2cn[nH]c2)cn(Cc2cccc(OC)c2)c1=O` [Example 17, N^5-(2-(1H-pyrazol-4-yl)ethyl)-1-(3-methoxybenzyl)-N^3-methyl-2-oxo-1,2-dihydropyridine-3,5-dicarboxamide], 100 to 1000 nM.
As for `CCNC(=O)c1cc(C(=O)NC)c(=O)n(Cc2cccc(OC)c2)c1` [Example 18, N^5-ethyl-1-(3-methoxybenzyl)-N^3-methyl-2-oxo-1,2-dihydropyridine-3,5-dicarboxamide], the IC50 under setting [2] is 100 to 1000 nM.
For the compound `CNC(=O)c1cc(C(=O)NCCc2c[nH]cn2)cn(Cc2cccc(OCCO)c2)c1=O` [Example 19, N^5-(2-(1H-imidazol-4-yl)ethyl)-1-(3-(2-hydroxyethoxy)benzyl)-N^3-methyl-2-oxo-1,2-dihydropyridine-3,5-dicarboxamide], under setting [2], the IC50 was 100 to 1000 nM.
In the case of `CCNC(=O)c1cc(C(=O)NC)c(=O)n(Cc2cccc(OCCO)c2)c1` [Example 20, N^5-Ethyl-1-(3-(2-hydroxyethoxy)benzyl)-N^3-methyl-2-oxo-1,2-dihydropyridine-3,5-dicarboxamide], the IC50 under setting [1] is 251 nM and the IC50 under setting [2] was 100 to 1000 nM.
Turning to `CNC(=O)c1cc(C(=O)NCCc2cn[nH]c2)cn(Cc2cccc(OCCO)c2)c1=O` [Example 21, N^5-(2-(1H-pyrazol-4-yl)ethyl)-1-(3-(2-hydroxyethoxy)benzyl)-N^3-methyl-2-oxo-1,2-dihydropyridine-3,5-dicarboxamide], under setting [2], the IC50 was 100 to 1000 nM.
Same read-out and setting: as for `CCNC(=O)c1cc(C(=O)NC)c(=O)n(Cc2cccc(C)c2F)c1` [Example 22, N^5-Ethyl-1-(2-fluoro-3-methylbenzyl)-N^3-methyl-2-oxo-1,2-dihydropyridine-3,5-dicarboxamide], the figure is 100 to 1000 nM; as for `CNC(=O)c1cc(C(=O)NCCc2cn[nH]c2)cn(Cc2cccc(C)c2F)c1=O` [Example 23, N^5-(2-(1H-Pyrazol-4-yl)ethyl)-1-(2-fluoro-3-methylbenzyl)-N^3-methyl-2-oxo-1,2-dihydropyridine-3,5-dicarboxamide], 100 to 1000 nM.
Same read-out and setting: as for `CNC(=O)c1cc(C(=O)NCCc2c[nH]cn2)cn(Cc2cccc3[nH]ccc23)c1=O` [Example 24, N^5-(2-(1H-Imidazol-4-yl)ethyl)-1-((1H-indol-4-yl)methyl)-N^3-methyl-2-oxo-1,2-dihydropyridine-3,5-dicarboxamide], the figure is at most 100 nM.
On to `CCNC(=O)c1cc(C(=O)NC)c(=O)n(Cc2cccc3[nH]ccc23)c1` [Example 25, 1-((1H-Indol-4-yl)methyl)-N^5-ethyl-N^3-methyl-2-oxo-1,2-dihydropyridine-3,5-dicarboxamide], for which the IC50 under setting [1] is 25.1 nM and the IC50 under setting [2] was at most 100 nM.
As to `CNC(=O)c1cc(C(=O)NCCc2cn[nH]c2)cn(Cc2cccc3[nH]ccc23)c1=O` [Example 26, 1-((1H-Indol-4-yl)methyl)-N^5-(2-(1H-pyrazol-4-yl)ethyl)-N^3-methyl-2-oxo-1,2-dihydropyridine-3,5-dicarboxamide], the IC50 under setting [2] was at most 100 nM.
In the case of `CNC(=O)c1cc(C(=O)NCC(C)OC)cn(Cc2ccccc2)c1=O` (centres unmarked) [Example 29, 1-Benzyl-N^5-(2-methoxypropyl)-N^3-methyl-2-oxo-1,2-dihydropyridine-3,5-dicarboxamide], the IC50 under setting [2] is 1000 to 100000 nM.
The same measure, in the same setting: as for `CNC(=O)c1cc(C(=O)NCC(C)O)cn(Cc2ccccc2)c1=O` (centres unmarked) [Example 31, 1-Benzyl-N^5-(2-hydroxypropyl)-N^3-methyl-2-oxo-1,2-dihydropyridine-3,5-dicarboxamide], the figure is 1000 to 100000 nM; as for `CNC(=O)c1cc(C(=O)NCCCO)cn(Cc2ccccc2)c1=O` [Example 32, 1-Benzyl-N^5-(3-hydroxypropyl)-N^3-methyl-2-oxo-1,2-dihydropyridine-3,5-dicarboxamide], 100 to 1000 nM.

Values taken from patent US10471050B2, “2-OXO-1,2-dihydropyridine-3,5-dicarboxamide compounds as bromodomain inhibitors” (GlaxoSmithKline Intellectual Property (No. 2) Limited, priority 2015, dated 2019).
